In the supplement of paper PMC10307832:

Tests used:
Assay in all cases: relative viability (nuclei count vs DMSO), 5 days (fraction); higher = more cells survive
[1] = compound: CC(C)C[C@H](NC(=O)[C@H](CCc1ccccc1)NC(=O)CN1CCOCC1)C(=O)N[C@@H](Cc1ccccc1)C(=O)N[C@@H](CC(C)C)C(=O)[C@@]1(C)CO1 [Carfilzomib] + COc1cccc2cc(-c3nc([C@H]4CC[C@H](C(=O)O)CC4)n4ncnc(N)c34)[nH]c12 [OSI-027] (partner 0.5 µM)
How it was run: (§1)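 Each reported value is a median over duplicate plates. It expresses relative viability: treated-well nuclei count divided by vehicle-well nuclei count. Lung cancer cell lines in 1536-well plates were dosed by pin tool a day after seeding, alone with one drug or with a fixed anchor-drug dose plus five library-drug doses (not always all listed) in √10 steps, and nuclei were counted after 5 days.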

[2] = compound: CC(C)C[C@H](NC(=O)[C@H](CCc1ccccc1)NC(=O)CN1CCOCC1)C(=O)N[C@@H](Cc1ccccc1)C(=O)N[C@@H](CC(C)C)C(=O)[C@@]1(C)CO1 [Carfilzomib] + C[C@]1(O)C[C@@H](c2nc(-c3ccc4ccc(-c5ccccc5)nc4c3)c3c(N)nccn32)C1 [Linsitinib] (partner 1 µM)
How it was run: as §1

[3] = compound: CC(C)C[C@H](NC(=O)[C@H](CCc1ccccc1)NC(=O)CN1CCOCC1)C(=O)N[C@@H](Cc1ccccc1)C(=O)N[C@@H](CC(C)C)C(=O)[C@@]1(C)CO1 [Carfilzomib] + O=C(c1cc(Cc2n[nH]c(=O)c3ccccc23)ccc1F)N1CCN(C(=O)C2CC2)CC1 [Olaparib] (partner 8 µM)
How it was run: as §1

[4] = compound: O=C(c1cc(Cc2n[nH]c(=O)c3ccccc23)ccc1F)N1CCN(C(=O)C2CC2)CC1 [Olaparib] + Cc1cc(Nc2cc(N3CCN(C)CC3)nc(Sc3ccc(NC(=O)C4CC4)cc3)n2)n[nH]1 [Tozasertib] (partner 0.1 µM)
How it was run: as §1

Cell Line | relative viability ([1]; first compound 0.001 µM) | relative viability ([1]; first compound 0.003162 µM) | relative viability ([1]; first compound 0.01 µM) | relative viability ([1]; first compound 0.03162 µM) | relative viability ([1]; first compound 0.1 µM) | relative viability ([2]; first compound 0.001 µM) | relative viability ([2]; first compound 0.003162 µM) | relative viability ([2]; first compound 0.01 µM) | relative viability ([2]; first compound 0.03162 µM) | relative viability ([2]; first compound 0.1 µM) | relative viability ([3]; first compound 0.001 µM) | relative viability ([3]; first compound 0.003162 µM) | relative viability ([3]; first compound 0.01 µM) | relative viability ([3]; first compound 0.03162 µM) | relative viability ([3]; first compound 0.1 µM) | relative viability ([4]; first compound 0.08 µM) | relative viability ([4]; first compound 0.253 µM) | relative viability ([4]; first compound 2.53 µM) | relative viability ([4]; first compound 8 µM)
HCC-78 | 0.332 | 0.318 | 0.387 | 0.359 | 0.227 | 0.554 | 0.585 | 0.545 | 0.385 | 0.214 | 0.733 | 0.881 | 0.844 | 0.552 | 0.233 | 0.399 | 1.61 | 0.41 | 0.486
HCC-366 | 0.914 | 1.02 | 1.12 | 0.839 | 0.035 | 0.657 | 0.666 | 0.611 | 0.557 | 0.0209 | 0.364 | 0.39 | 0.362 | 0.311 | 0.0358 | 0.11 | 0.118 | 0.0926 | 0.0619
HCC-827 | 0.796 | 0.829 | 0.872 | 0.746 | 0.511 | 0.941 | 0.979 | 1.05 | 0.848 | 0.406 | 0.671 | 0.619 | 0.712 | 0.643 | 0.108 | 0.414 | 0.376 | 0.399 | 0.378
HOP-62 | 0.892 | 0.899 | 0.575 | 0.317 | 0.083 | 0.991 | 0.992 | 0.924 | 0.133 | 0.0627 | 0.399 | 0.397 | 0.443 | – | 0.0477 | 0.485 | 0.317 | 0.374 | 0.287
IA-LM | – | – | – | – | – | 0.58 | 0.687 | 0.836 | 0.0717 | 0.0278 | 1.06 | 0.779 | 0.738 | 0.0714 | 0.0425 | – | – | – | –
LC-2-ad | 0.83 | 1.02 | 0.901 | 0.633 | 0.207 | 0.879 | 0.907 | 0.907 | 0.462 | 0.151 | 0.673 | 0.715 | 0.667 | 0.637 | 0.237 | 0.554 | 0.429 | 0.436 | 0.437
LCLC-97TM1 | 0.459 | 0.512 | 0.533 | 0.298 | 0.246 | 0.205 | 0.178 | 0.207 | 0.119 | 0.127 | 0.367 | 0.527 | 0.318 | 0.0498 | 0.0493 | 0.22 | 0.211 | 0.262 | 0.238
LCLC-103H | 0.462 | 0.463 | 0.541 | 0.483 | 0.277 | 0.951 | 0.882 | 1.06 | 1.11 | 0.296 | 0.733 | 0.781 | 0.793 | 0.428 | 0.354 | 0.499 | 0.47 | 0.528 | 0.41
LK-2 | 0.223 | 0.201 | 0.166 | 0.18 | 0.181 | 0.815 | 0.837 | 0.497 | 0.18 | 0.177 | 0.646 | 0.661 | 0.86 | 0.149 | 0.149 | 0.161 | 0.178 | 0.164 | 0.171
LOU-NH91 | 0.77 | 0.801 | 0.711 | 0.259 | 0.322 | 1.01 | 1.14 | 0.67 | 0.334 | 0.298 | 0.923 | 0.992 | 0.871 | 0.34 | 0.287 | 0.729 | 0.674 | 0.637 | 0.628
NCI-H522 | 0.585 | 0.731 | 0.634 | 0.461 | 0.456 | – | – | – | – | – | 0.586 | 0.778 | 0.694 | 0.489 | 0.314 | 0.513 | 0.541 | 0.593 | 0.621
NCI-H1299 | – | – | – | – | – | 1.02 | 1.05 | 0.971 | 0.239 | 0.106 | 0.964 | 0.998 | 0.933 | 0.191 | 0.116 | – | – | – | –
NCI-H1563 | 0.775 | 0.71 | 0.797 | 0.705 | 0.586 | 1.19 | 1.26 | 1.25 | 1.2 | 0.586 | – | – | – | – | – | – | – | – | –
NCI-H1623 | 0.449 | 0.462 | 0.46 | 0.374 | 0.312 | – | – | – | – | – | – | – | – | – | – | 0.474 | 0.446 | 0.493 | 0.413
NCI-H1648 | – | 0.272 | 0.256 | 0.255 | 0.298 | – | – | – | – | – | 1.07 | 0.563 | 0.745 | 0.922 | 0.189 | – | 0.482 | – | 0.556
NCI-H1650 | 0.656 | 0.496 | 0.162 | 0.142 | 0.198 | – | – | – | – | – | 0.811 | 0.855 | 0.723 | 0.111 | 0.137 | 0.475 | 0.391 | 0.372 | 0.361
NCI-H1703 | – | – | – | – | – | 0.91 | 1.22 | 0.44 | 0.132 | 0.0996 | 0.44 | 0.493 | 0.124 | 0.1 | 0.129 | – | – | – | –
NCI-H1792 | 0.727 | 0.794 | 0.684 | 0.633 | 0.519 | 0.492 | 0.632 | 0.365 | 0.633 | 0.339 | – | 0.41 | 0.633 | 0.393 | 0.0411 | – | – | – | –
NCI-H2170 | 0.643 | 0.696 | 0.792 | 0.72 | 0.271 | – | – | – | – | – | 0.6 | 0.674 | 0.588 | 0.218 | 0.117 | 0.81 | 0.806 | 0.705 | 0.629
NCI-H2342 | 0.663 | 0.621 | 0.723 | 0.632 | 0.495 | – | – | – | – | – | 0.424 | 0.541 | 0.499 | 0.497 | 0.317 | 0.458 | 0.552 | 0.479 | 0.416
SW 900 | 0.451 | 0.362 | 0.114 | 0.0786 | 0.135 | – | – | – | – | – | – | 0.756 | 0.323 | 0.174 | 0.168 | 0.516 | 0.395 | 0.536 | 0.483
